Assay results taken from PubChem BioAssay AID192 (DTP/NCI, 2004).
Inconclusive results and toxic doses are left out. Rule for the calls: active = survival T/C of 150% or more; inactive = T/C below 125% in these data.

System: BDF1 mice, B16 melanoma ip, median survival T/C
Test: NCI In Vivo Anticancer Drug Screen. Data for tumor model B16 Melanoma (intraperitoneal) in B6D2F1 (BDF1) mice
Details: endpoint: median survival time, higher = longer survival
How it was run: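 Antitumor activity is assessed in mice bearing a transplanted tumor, with survival or tumor size compared against vehicle-dosed controls and expressed as T/C.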

[1] = dose: 50.0 mg/kg/injection, schedule: Q01DX009 (ip), vehicle: saline
[2] = dose: 25.0 mg/kg/injection, schedule: Q01DX009 (ip), vehicle: saline
[3] = dose: 50.0 mg/kg/injection, schedule: Q04DX003 (ip), vehicle: saline
[4] = dose: 100.0 mg/kg/injection, schedule: Q04DX003 (ip), vehicle: saline
[5] = dose: 100.0 mg/kg/injection, schedule: Q01DX009 (ip), vehicle: Klucel (hydroxypropylcellulose) (HPC)
[6] = dose: 200.0 mg/kg/injection, schedule: Q01DX009 (ip), vehicle: Klucel (hydroxypropylcellulose) (HPC)

Measured: T/C

Cc1ccc(S(=O)(=O)OCCN(CCOS(=O)(=O)c2ccc(C)cc2)c2ccc(F)cc2)cc1
inactive: dose: 0.17 mg/kg/injection, schedule: Q01DX009 (ip), vehicle: saline 115 % of control | dose: 0.35 mg/kg/injection, schedule: Q01DX009 (ip), vehicle: saline 108 % of control | dose: 0.7 mg/kg/injection, schedule: Q01DX009 (ip), vehicle: saline 106 % of control | dose: 1.5 mg/kg/injection, schedule: Q01DX009 (ip), vehicle: saline 115 % of control | dose: 3.13 mg/kg/injection, schedule: Q01DX009 (ip), vehicle: saline 119 % of control | dose: 6.25 mg/kg/injection, schedule: Q01DX009 (ip), vehicle: saline 117 % of control | dose: 12.5 mg/kg/injection, schedule: Q01DX009 (ip), vehicle: saline + alcohol 88 % of control | dose: 50.0 mg/kg/injection, schedule: Q01DX009 (ip), vehicle: saline + alcohol 110 % of control | dose: 100.0 mg/kg/injection, schedule: Q01DX009 (ip), vehicle: saline + alcohol 104 % of control
active: [1] 154 % of control

C=CCOP(=O)(N1CC1C)N1CC1C (centres undefined)
inactive: [2] 95 % of control | [1] 96 % of control | [3] 97 % of control | [4] 105 % of control

C[C@]12CC[C@H]3C(=CCc4cc(O)ccc43)[C@@H]1C/C(=N\O)C2=O
inactive: dose: 100.0 mg/kg/injection, schedule: Q01DX009 (ip), vehicle: saline with Tween-80 95 % of control | dose: 200.0 mg/kg/injection, schedule: Q01DX009 (ip), vehicle: saline with Tween-80 102 % of control | dose: 400.0 mg/kg/injection, schedule: Q01DX009 (ip), vehicle: saline with Tween-80 90 % of control

COc1cc(C(=O)OC(C)CN2CCOCC2)cc(OC)c1OC (centres undefined)
inactive: dose: 3.12 mg/kg/injection, schedule: Q04DX003 (ip), vehicle: saline 106 % of control | dose: 6.25 mg/kg/injection, schedule: Q04DX003 (ip), vehicle: saline 111 % of control | dose: 12.5 mg/kg/injection, schedule: Q01DX009 (ip), vehicle: saline 100 % of control | dose: 12.5 mg/kg/injection, schedule: Q04DX003 (ip), vehicle: saline 106 % of control | [2] 100 % of control | dose: 25.0 mg/kg/injection, schedule: Q04DX003 (ip), vehicle: saline 105 % of control | [1] 100 % of control | [3] 102 % of control | dose: 100.0 mg/kg/injection, schedule: Q01DX009 (ip), vehicle: saline 108 % of control | [4] 98 % of control | dose: 200.0 mg/kg/injection, schedule: Q01DX009 (ip), vehicle: saline 102 % of control | dose: 200.0 mg/kg/injection, schedule: Q04DX003 (ip), vehicle: saline 118 % of control | dose: 400.0 mg/kg/injection, schedule: Q04DX003 (ip), vehicle: saline 97 % of control

CN(C)N=Nc1cn[nH]c1C(N)=O
inactive: dose: 12.5 mg/kg/injection, schedule: Q01DX009 (ip), vehicle: Klucel (hydroxypropylcellulose) (HPC) 110 % of control | dose: 25.0 mg/kg/injection, schedule: Q01DX009 (ip), vehicle: Klucel (hydroxypropylcellulose) (HPC) 111 % of control | dose: 50.0 mg/kg/injection, schedule: Q01DX009 (ip), vehicle: Klucel (hydroxypropylcellulose) (HPC) 100 % of control | [5] 98 % of control | [6] 96 % of control

CC(CN(C)C)CN1c2ccccc2CCc2ccccc21 (centres undefined)
inactive: dose: 2.18 mg/kg/injection, schedule: Q01DX009 (ip), vehicle: saline 106 % of control | dose: 4.37 mg/kg/injection, schedule: Q01DX009 (ip), vehicle: saline 110 % of control | dose: 8.75 mg/kg/injection, schedule: Q01DX009 (ip), vehicle: saline 100 % of control | dose: 17.5 mg/kg/injection, schedule: Q01DX009 (ip), vehicle: saline 91 % of control

Cc1cc(Cl)ccc1NC(=O)Nc1ccccc1Cl
inactive: dose: 18.8 mg/kg/injection, schedule: Q01DX009 (ip), vehicle: Klucel (hydroxypropylcellulose) (HPC) 104 % of control | dose: 37.5 mg/kg/injection, schedule: Q01DX009 (ip), vehicle: Klucel (hydroxypropylcellulose) (HPC) 91 % of control | dose: 75.0 mg/kg/injection, schedule: Q01DX009 (ip), vehicle: Klucel (hydroxypropylcellulose) (HPC) 94 % of control

Cc1cc(C)c(COCc2cc(C)c(C)cc2C)cc1C
inactive: dose: 50.0 mg/kg/injection, schedule: Q01DX009 (ip), vehicle: water 95 % of control | dose: 100.0 mg/kg/injection, schedule: Q01DX009 (ip), vehicle: water 95 % of control

CCCCCCC(=O)CCCC(C)CCCC(C)C (centres undefined)
inactive: [5] 91 % of control | dose: 100.0 mg/kg/injection, schedule: Q04DX003 (ip), vehicle: Klucel (hydroxypropylcellulose) (HPC) 105 % of control | [6] 88 % of control | dose: 200.0 mg/kg/injection, schedule: Q04DX003 (ip), vehicle: Klucel (hydroxypropylcellulose) (HPC) 94 % of control | dose: 400.0 mg/kg/injection, schedule: Q04DX003 (ip), vehicle: Klucel (hydroxypropylcellulose) (HPC) 88 % of control
